Measured values from ChEMBL document CHEMBL1134813, “Inhibition of HIV-1 infection by synthetic peptide analogues derived from the NH(2)-Terminal extracellular region of GPR1” (Bioorg Med Chem Lett, 2001).
Where a SMILES comes first, the peptide text is derived from it. [ ]: non-standard residue; d: D form. The star is where a group is joined. sY = N[C@@H](Cc1ccc(OS(=O)(=O)O)cc1)C(=O)O; X1 = O=S(=O)(O)O*

What was measured:
C8166 [1] = test: Anti HIV-1 activity was evaluated through C8166/GUN1WT syncytium formation assay at a concentration of 50 ug/mL; type: functional, Homo sapiens
[2] = Anti HIV-1 activity measured in terms of cytotoxicity against NP-2/CD4/GPR1 cells infected with HIV-1 (GUN1V); type: functional, cell-based, Homo sapiens
C8166 [3] = test: Anti HIV-1 activity was evaluated through C8166/GUN1WT syncytium formation assay at a concentration of 1000 ug/mL; type: functional, Homo sapiens
C8166 [4] = test: Anti HIV-1 activity was evaluated through C8166/GUN1WT syncytium formation assay at a concentration of 200 ug/mL; type: functional, Homo sapiens
[5] = Anti HIV-1 activity measured in terms of cytotoxicity against NP-2/CD4/CXCR4 cells infected with HIV-1 (IIIBstrain); type: functional, cell-based, Homo sapiens
[6] = Anti HIV-1 activity measured in terms of cytotoxicity against NP-2/CD4/CCR5 cells infected with HIV-1(GUN1WT); type: functional, cell-based, Homo sapiens
[7] = Anti HIV-1 activity measured in terms of cytotoxicity against NP-2/CD4/CXCR4 cells infected with HIV-1(GUN1WT); type: functional, cell-based, Homo sapiens
C8166 [8] = test: Anti HIV-1 activity was evaluated through C8166/GUN1WT syncytium formation assay at a concentration of 0 ug/mL; type: functional, Homo sapiens

Row | SMILES | Activity (C8166 [1]) | IC50 [2] | Activity (C8166 [3]) | Activity (C8166 [4]) | IC50 ([5]; Homo sapiens) | IC50 ([2]; Homo sapiens) | IC50 ([6]; Homo sapiens, CCR5) | IC50 ([7]; Homo sapiens) | IC50 [5] | IC50 ([6]; np-2/cd4/ccr5) | IC50 [7] | Activity (C8166 [8])
1 | CC(C)C[C@H](NC(=O)[C@H](CC(=O)OS(=O)(=O)[O-])NC(=O)[C@H](Cc1ccc(OS(=O)(=O)[O-])cc1)NC(=O)[C@H](COS(=O)(=O)[O-])NC(=O)[C@@H](N)Cc1ccc(OS(=O)(=O)[O-])cc1)C(=O)N[C@@H](CC(=O)OS(=O)(=O)[O-])C(=O)N[C@@H](Cc1ccc(OS(=O)(=O)[O-])cc1)C(=O)N[C@@H](Cc1ccc(OS(=O)(=O)[O-])cc1)C(=O)O.[Na+].[Na+].[Na+].[Na+].[Na+].[Na+].[Na+] | 235 | 660 µM | 191 | 210 | – | – | – | – | – | – | – | –
2 | CCN(CC)CC.CCN(CC)CC.CCN(CC)CC.CCN(CC)CC.CCN(CC)CC.CCN(CC)CC.CCN(CC)CC.CCN(CC)CC.COC(=O)C(=O)N1CCC[C@H]1C(=O)N[C@H](Cc1ccccc1)C(=O)Nc1ccccc1OCC(=O)N[C@@H](Cc1ccc(OS(=O)(=O)O)cc1)C(=O)N[C@@H](COS(=O)(=O)O)C(=O)N[C@@H](Cc1ccc(OS(=O)(=O)O)cc1)C(=O)N[C@@H](CC(=O)OS(=O)(=O)O)C(=O)N[C@@H](CC(C)C)C(=O)N[C@@H](CC(=O)OS(=O)(=O)O)C(=O)N[C@@H](Cc1ccc(OS(=O)(=O)O)cc1)C(=O)N[C@@H](Cc1ccc(OS(=O)(=O)O)cc1)C(=O)O | 219 | – | 1 | 66 | 10 µM | 4.1 µM | 42 µM | 10 µM | – | – | – | –
3 | CC(C)C[C@H](NC(=O)[C@H](CC(=O)OS(=O)(=O)O)NC(=O)[C@H](Cc1ccc(OS(=O)(=O)O)cc1)NC(=O)[C@H](COS(=O)(=O)O)NC(=O)[C@@H](N)Cc1ccc(OS(=O)(=O)O)cc1)C(=O)N[C@@H](CC(=O)OS(=O)(=O)O)C(=O)N[C@@H](Cc1ccc(OS(=O)(=O)O)cc1)C(=O)N[C@@H](Cc1ccc(OS(=O)(=O)O)cc1)C(=O)O.CCN(CC)CC.CCN(CC)CC.CCN(CC)CC.CCN(CC)CC.CCN(CC)CC.CCN(CC)CC.CCN(CC)CC | 258 | 4.5 µM | 4 | 52 | – | – | – | – | 18 µM | 42 µM | 10 µM | –
4 | CC(C)C[C@H](NC(=O)[C@H](CC(=O)OS(=O)(=O)O)NC(=O)[C@H](Cc1ccc(OS(=O)(=O)O)cc1)NC(=O)[C@H](COS(=O)(=O)O)NC(=O)[C@@H](N)Cc1ccc(OS(=O)(=O)O)cc1)C(=O)N[C@@H](CC(=O)OS(=O)(=O)O)C(=O)N[C@@H](Cc1ccc(OS(=O)(=O)O)cc1)C(=O)N[C@@H](Cc1ccc(OS(=O)(=O)O)cc1)C(=O)O | 231 | > 1000 µM | 124 | 165 | – | – | – | – | > 1000 µM | > 1000 µM | > 1000 µM | –
5 | CCN(CC)CC.CCN(CC)CC.CCN(CC)CC.CCN(CC)CC.CCN(CC)CC.COC(=O)C(=O)N1CCC[C@H]1C(=O)N[C@H](Cc1ccccc1)C(=O)Nc1ccccc1OCC(=O)N[C@@H](Cc1ccc(OS(=O)(=O)O)cc1)C(=O)N[C@@H](CC(=O)OS(=O)(=O)O)C(=O)N[C@@H](CC(C)C)C(=O)N[C@@H](CC(=O)OS(=O)(=O)O)C(=O)N[C@@H](Cc1ccc(OS(=O)(=O)O)cc1)C(=O)N[C@@H](Cc1ccc(OS(=O)(=O)O)cc1)C(=O)O | 182 | – | 12 | 88 | 55 µM | 35 µM | 60 µM | 80 µM | – | – | – | –
6 | COC(=O)C(=O)N1CCC[C@H]1C(=O)N[C@H](Cc1ccccc1)C(=O)Nc1ccccc1OCC(=O)N[C@@H](Cc1ccc(O)cc1)C(=O)N[C@@H](CC(=O)O)C(=O)N[C@@H](CC(C)C)C(=O)N[C@@H](CC(=O)O)C(=O)N[C@@H](Cc1ccc(O)cc1)C(=O)N[C@@H](Cc1ccc(O)cc1)C(=O)O | 155 | – | 55 | 100 | 150 µM | 100 µM | 120 µM | 100 µM | – | – | – | 192
7 | COC(=O)C(=O)N1CCC[C@H]1C(=O)N[C@H](Cc1ccccc1)C(=O)Nc1ccccc1OCC(=O)N[C@@H](Cc1ccc(O)cc1)C(=O)N[C@@H](CO)C(=O)N[C@@H](Cc1ccc(O)cc1)C(=O)N[C@@H](CC(=O)O)C(=O)N[C@@H](CC(C)C)C(=O)N[C@@H](CC(=O)O)C(=O)N[C@@H](Cc1ccc(O)cc1)C(=O)N[C@@H](Cc1ccc(O)cc1)C(=O)O | 215 | – | 121 | 222 | > 1000 µM | 660 µM | > 1000 µM | > 1000 µM | – | – | – | –
8 | CC(C)C[C@H](NC(=O)[C@H](CC(=O)O)NC(=O)[C@@H](N)Cc1ccc(O)cc1)C(=O)N[C@@H](CC(=O)O)C(=O)N[C@@H](Cc1ccc(O)cc1)C(=O)N[C@@H](Cc1ccc(O)cc1)C(=O)O (H-YDLDYY-OH) | 188 | – | 4 | 62 | 350 µM | 42 µM | 66 µM | 180 µM | – | – | – | –
9 | CC(C)C[C@H](NC(=O)[C@H](CC(=O)O)NC(=O)[C@H](Cc1ccc(O)cc1)NC(=O)[C@H](CO)NC(=O)[C@@H](N)Cc1ccc(O)cc1)C(=O)N[C@@H](CC(=O)O)C(=O)N[C@@H](Cc1ccc(O)cc1)C(=O)N[C@@H](Cc1ccc(O)cc1)C(=O)O (H-YSYDLDYY-OH) | 228 | – | 133 | 252 | > 1000 µM | 660 µM | > 1000 µM | > 1000 µM | – | – | – | –
10 | CC(C)C[C@H](NC(=O)[C@H](CC(=O)OS(=O)(=O)O)NC(=O)[C@@H](N)Cc1ccc(OS(=O)(=O)O)cc1)C(=O)N[C@@H](CC(=O)OS(=O)(=O)O)C(=O)N[C@@H](Cc1ccc(OS(=O)(=O)O)cc1)C(=O)N[C@@H](Cc1ccc(OS(=O)(=O)O)cc1)C(=O)O.CCN(CC)CC.CCN(CC)CC.CCN(CC)CC.CCN(CC)CC.CCN(CC)CC (H-[sY]D(X1)LD(X1)[sY][sY]-OH) | 193 | – | 0 | 52 | 15 µM | 25 µM | 55 µM | 65 µM | – | – | – | 215
